The values that follow come from ChEMBL document CHEMBL5375989, “Pioneering 4,11-Dioxo-4,11-dihydro-1H-anthra[2,3-d]imidazol-3-ium Compounds as Promising Survivin Inhibitors by Targeting ILF3/NF110 for Cancer Therapy” (J Med Chem, 2023).

Series [1] concerns A549. Kind of series: Induction of apoptosis in human A549 cells assessed as viable cells at 0.04 uM measured after 48 hrs by annexin V and PI staining based flow cytometry analysis (reference value: 93.3%). In kind it is functional. To be noted: Homo sapiens, A549, 48 h, read-out: Activity.
For series [2], the system named is HepG2. Kind of series: Antiproliferative activity against human HepG2 cells assessed as inhibition of cell growth measured after 48 hrs by MTT assay. To be noted: hepg2. The class given is functional, cell-based. (In general: Tetrazolium assays rely on reduction of a dye to a coloured formazan, in cell work by metabolically active cells.)
Series [3] in a line: Drug distribution in BALB/C nude mouse tumor xenografted with human A549 cells at 2 mg/kg measured after 2 to 6 hrs by UPLC-3Q analysis. The class given is ADME, organism-based, Neoplasm. To be noted: in vivo, time 2-6 hrs. (In general: A xenograft is tissue or cells of one species grown in another, often human tumour cells in immunodeficient mice.)
Series [4] in a line: Drug metabolism in BALB/C nude mouse kidney xenografted with human A549 cells at 2 mg/kg measured after 2 to 6 hrs by UPLC-3Q analysis. In kind it is ADME, organism-based. To be noted: in vivo, time 2-6 hrs.
Series [5] deals with A549. As to the kind of experiment: Induction of apoptosis in human A549 cells assessed as early apoptotic cells at 0.1 uM measured after 48 hrs by annexin V and PI staining based flow cytometry analysis (reference value: 0.71%). The class given is functional.
Series [6] in a line: Selectivity index, ratio of IC50 for mouse L929 cells to IC50 for human A549 cells. In kind it is toxicity. To be noted: L929 cells and A549 cells, read-out: Ratio IC50.
Series [7] in a line: Toxicity in BALB/c mouse assessed as morphological changes in heart at 2 to 4 mg/kg by H and E staining based analysis. In kind it is organism-based. To be noted: in vivo, dose 2-4 mg/kg.
For series [8], the system named is A549. As to the kind of experiment: Induction of cell cycle arrest in human A549 cells assessed as accumulation of cells at G0/G1 phase at 0.1 uM incubated for 48 hrs by PI staining based flow cytometry analysis (reference value: 63.26%). In kind it is functional. On the technique in general: A flow cytometer gives signals particle by particle.
Series [9] deals with A549. Kind of series: Antitumor activity against human A549 cells xenografted in BALB/c nude mouse assessed as inhibition of tumor growth at 4 mg/kg, sc administered every 2 days for 14 days relative to control. To be noted: time 14 day. Also on record: scale not given: the % may be the effect or the level left. The class given is functional.
Series [10] can be described thus: Toxicity in BALB/c nude mouse assessed as dermatitis at 2 mg/kg, sc administered every 2 days for 14 days. The class given is organism-based. To be noted: in vivo, 336 h, time 14 day.
The test system of series [11] is A549. As to the kind of experiment: Antiproliferative activity against human A549 cells assessed as inhibition of cell growth measured after 48 hrs in presence of scramble siRNA by MTT assay. To be noted: A549, 48 h. In kind it is functional, cell-based.
Series [12] concerns A549. As to the kind of experiment: Induction of apoptosis in human A549 cells assessed as necrotic cells at 0.25 uM measured after 48 hrs by annexin V and PI staining based flow cytometry analysis (reference value: 1.47%). The class given is functional.
Series [13] can be described thus: Toxicity in BALB/c nude mouse assessed as dermatitis at 4 mg/kg, sc administered every 2 days for 14 days. In kind it is organism-based. To be noted: in vivo, 336 h, time 14 day.
Series [14] concerns NCI-H460. Kind of series: Antiproliferative activity against human NCI-H460 cells assessed as inhibition of cell growth measured after 48 hrs by MTT assay. The class given is functional, cell-based. To be noted: nci-h460.
Series [15] is described as follows: Toxicity in BALB/c nude mouse assessed as death at 4 mg/kg, sc administered every 2 days for 14 days. The class given is organism-based. To be noted: in vivo, 336 h, time 14 day.
The nature of series [16]: Drug uptake in Sprague-Dawley rat blood at 2 mg/kg measured after 24 hrs by UPLC-3Q analysis. The class given is ADME, organism-based. To be noted: in vivo.
The subject of series [17] is ASPC1. Kind of series: Antiproliferative activity against human ASPC1 cells assessed as inhibition of cell growth measured after 48 hrs by MTT assay. In kind it is functional, cell-based. To be noted: aspc1.

Consider `Cn1c[n+](C)c2c1C(=O)c1cc3ccccc3cc1C2=O.[I-]`, for which the viability at 0.04 µM in [1] was found to be 27.8%. The half-inhibitory concentration (IC50) (as a rule, the concentration that inhibits the measured activity by half) was 250 nM in series [2], 9 nM in series [11], 140 nM in series [14] and 250 nM in series [17]. Also, the Drug uptake result in series [3] and in series [16] was “Active” throughout. Also, in series [4], the Drug metabolism entry was “Metabolite_Detected”. Moreover, the Activity in series [5] is on record as 2.55%; in [7], “Non-Toxic”; in series [8], 85.37%; in [9], 83.6%; in series [10] it was “Non-Toxic”; in [12], 4.32%. In addition, the Activity result in series [13] and in [15] was “Non-Toxic” each time. In addition, in series [6], the selectivity ratio was found to be 2390.
